Experimental data as given in paper PMC8854749, “Celastrol Inhibits Canine Mammary Tumor Cells by Inducing Apoptosis via the Caspase Pathway” (Frontiers in Veterinary Science, 2022).
Peptide text beside a SMILES is read from it. * marks the point of attachment. Cbz = O=C(OCc1ccccc1)*; CH2F = FC*

Columns and labels:
Test in all cases: Western blot of apoptosis- and cell cycle-related proteins
Assay type in all cases: cell-based, canine
CIPp cells [1] = details: inhibitor with 0.9 μM celastrol, 24 h
CMT-7364 cells [2] = details: inhibitor with celastrol, 24 h, vs celastrol alone
Protocol: (§1) The CMT-7364 and CIPp cells were treated with different concentrations of Caspase inhibitor Z-V-F and/or celastrol for 24 h, and the cells were lysed with RIPA lysis buffer on ice. The protein was extracted according to the manufacturer's instructions, and protein concentration was determined by the BCA protein concentration assay kit. The loading amount of 20 μg protein in each group was separated by 10% SDS-PAGE, the separated protein was transferred to polyvinylidene fluoride membrane. After blocking with 5% skimmed milk for 1 h, the membrane was washed two times with 0.5% PBS-Tween 20 (PBS-T), then the membrane with the primary antibody was incubated overnight in a shaker at 4°C. Primary antibodies include β-actin (1:2,000), p65 (1:1,000), NF-κB (1:1,000), Caspase-9 (1:1,000), Caspase-3 (1:1,000), Bax (1:2,000), Bcl-2 (1:1,000), Cyclin D1 (1:1,000), p21 (1:1,000), and p27 (1:1,000). After washing 3 times with PBS-T buffer for 10 min each time, the membrane was incubated with HRP-conjugated secondary antibody at 37°C for 30 min. Secondary antibodies include anti-mouse IgG antibody (1:5,000), anti-rabbit IgG antibody (1:2,000~1:4,000). The membrane was washed 3 times with PBS-T for 10 min each time. Finally, it was detected by an enhanced chemiluminescence detection system, and the results were quantified by ImageJ.

CIPp cells [3] = details: inhibitor with celastrol, 24 h, vs celastrol alone
Protocol: as §1

CMT-7364 cells [4] = details: inhibitor with 0.9 μM celastrol, 24 h

COC(=O)C[C@H](NC(=O)[C@H](C)NC(=O)[C@@H](NC(=O)OCc1ccccc1)C(C)C)C(=O)CF [Z-V-F, Z-VAD-FMK] (Cbz-Val-Ala-Asp(OMe)-CH2F)
effect on 0.9 μM celastrol-induced apoptosis (CIPp cells [1]): block
expression of anti-apoptotic protein Bcl-2 (CMT-7364 cells [2]): increased
expression of pro-apoptotic protein Bax induced by celastrol (CMT-7364 cells [2]): decreased
expression of anti-apoptotic protein Bcl-2 (CIPp cells [3]): increased
expression of pro-apoptotic protein Bax induced by celastrol (CIPp cells [3]): decreased
effect on 0.9 μM celastrol-induced apoptosis (CMT-7364 cells [4]): block
